Measurements from paper PMC10610134, “Verubulin (Azixa) Analogues with Increased Saturation: Synthesis, SAR and Encapsulation in Biocompatible Nanocontainers Based on Ca^2+ or Mg^2+ Cross-Linked Alginate” (Pharmaceuticals, 2023).

Test system: A549 cell line
Test: MTT assay of nanocontainer formulations, A549
Format: cell-based
Settings: Homo sapiens, 48 h treatment, 2c concentration in formulations = 0.1 × COO− concentration
Procedure: The MTT assay was carried out on the A549 cell line and non-tumor hTERT-immortalized human fibroblasts for 48 h (Table 2; for cell survival curves, see Supplementary Materials).
Lung adenocarcinoma A549, breast adenocarcinoma MDA-MB-231 and non-tumor fibroblasts immortalized with h-TERT cell lines were obtained from the American Type Culture Collection (Manassas, VA, USA). Cells were routinely propagated in Dulbecco’s modified Eagle’s medium (DMEM) supplemented with 10% fetal bovine serum (HyClone, Logan, UT, USA), 2 mM L-glutamine, 100 U/mL penicillin and 100 μg/mL streptomycin (PanEco, Moscow, Russia) at 37 °C, 5% CO2 in a humidified atmosphere. Cells in the logarithmic phase of growth were used in the experiments.
The cytotoxicity of compounds for human cell lines (A549, MDA-MB-231, non-tumor fibroblasts) was assessed in MTT assays. […]
Cytotoxicity was assessed in a formazan conversion assay (MTT test) after a 48 h exposure. After the completion of drug exposure, 0.5 mg/mL 3-(4,5-dimethylthiazol-2-yl)-2,5-diphenyltetrazolium bromide (MTT reagent) was added to cells for 2 h, the culture medium was removed, cells were resuspended in 100 μL DMSO and the optical densities were measured on a Multiscan FC plate spectrophotometer (Thermo Fisher Scientific, Waltham, MA, USA) at a wavelength of 571 nm. […]

IC50: 0.6 ± 0.06 µM
Structure (SMILES): COc1ccc(N(C)c2nc(C)nc3c2CCCC3)cc1 [Compound 2c, N-(4-methoxyphenyl)-N,2-dimethyl-5,6,7,8-tetrahydroquinazolin-4-amine]
